Laboratory results taken from patent US5064860A, “Method of inhibiting superoxide generation” (G. D. Searle & Co., priority 1990, dated 1991).
“Also recorded” adds a separate entry of the source. Like-named read-outs stand apart in the source and are kept apart here.

Columns and labels:
[1] = tested on: FMLP-stimulated human neutrophils; assay: Human neutrophil superoxide generation, FMLP-stimulated (cytochrome C reduction); assay type: cell-based; conditions: for IC50: read-out: Inhibition of FMLP Induced Superoxide IC50
Description: Human neutropil suproxide generation: Superoxide generation by formyl-methionyl-leucyl-phenylalanine (FMLP)-stimulated neutrophils was quantitated by the reduction of cytochrome C (Badwey, J. A., Curnutte, J. T. and Karnovsky, M. L., cis-Polyunsaturated fatty acids induce high levels of superoxide production by human neutrophils. J. Biol. Chem. 256: 12640-12643, 1981.) To 5 million neutrophils in 2.85 ml of Krebs-Ringer phosphate buffer, pH 7.2, 50 μl of inhibitor (in 10% DMSO/buffer), and 50 ul ferricytochrome C (5 mM, stock) were added and preincubated for 3 minutes at 37° C. Absorption measurements at 550 nm were recorded at start of preincubation. Fifty ul FMLP (6 uM, stock) was added to initiate reaction. A plateau was reached within 3 minutes and this reading--initial reading (before addition of FMLP) was used to calculate nanomoles of superoxide generated based on a molar extinction coefficient of 2.1×10^4 cm^-1 mole^-1.
Isolation of human neutrophils: Human neutrophils were isolated from freshly drawn blood of healthy donors. Two ml of 5% dextran (MW 200,000-300,000) in saline was added to 10 ml aliquots of blood, mixed and placed upright for 45 min. at 37° C. Approx. 8-10 ml of the plasma-white cell suspension from the dextran sedimentation was layered on 3 ml of Ficol-paque in a ml tube and centrifuged at 400 g for 30 min. The supernate, containing plasma and platelets, was discarded by aspiration, and the pellet, containing predominantly neutrophils, was resuspended in 1 ml saline. The suspension was transferred to a clean tube, and pooled with other aliquots of blood treated similarly. The pooled suspension was centrifuged at 350 g for 5 min. and supernate discarded. The pellet was resuspended in 5 ml of 0.05% NaCl with a plastic Pasteur pipette for 25 seconds to lyse contaminating red cells, then 5 ml of 1.75% NaCl added to regain isotonicity. The red cell lysing procedure was repeated, the cells suspended in appropriate buffer (depending on assay) and counted.

5-lipoxygenase = molecular target: T1, 5-lipoxygenase (Rattus norvegicus, UniProt P12527); assay: Inhibition of 5-lipoxygenase, in vitro (5-HETE synthesis from [1-14C]-arachidonic acid, RBL-1 supernatant); assay type: biochemical; conditions: for IC50: RBL-1 100,000×g supernatant
T1 construct: Rat Basophilic Leukemia Cell Homogenate (RBL-1) serves as a 5-lipoxygenase enzyme source; endogenous in cells; host or cells: RBL-1 (rat basophilic leukemia) cells, 100,000×g supernatant of homogenate
T1 sequence (P12527 1-673): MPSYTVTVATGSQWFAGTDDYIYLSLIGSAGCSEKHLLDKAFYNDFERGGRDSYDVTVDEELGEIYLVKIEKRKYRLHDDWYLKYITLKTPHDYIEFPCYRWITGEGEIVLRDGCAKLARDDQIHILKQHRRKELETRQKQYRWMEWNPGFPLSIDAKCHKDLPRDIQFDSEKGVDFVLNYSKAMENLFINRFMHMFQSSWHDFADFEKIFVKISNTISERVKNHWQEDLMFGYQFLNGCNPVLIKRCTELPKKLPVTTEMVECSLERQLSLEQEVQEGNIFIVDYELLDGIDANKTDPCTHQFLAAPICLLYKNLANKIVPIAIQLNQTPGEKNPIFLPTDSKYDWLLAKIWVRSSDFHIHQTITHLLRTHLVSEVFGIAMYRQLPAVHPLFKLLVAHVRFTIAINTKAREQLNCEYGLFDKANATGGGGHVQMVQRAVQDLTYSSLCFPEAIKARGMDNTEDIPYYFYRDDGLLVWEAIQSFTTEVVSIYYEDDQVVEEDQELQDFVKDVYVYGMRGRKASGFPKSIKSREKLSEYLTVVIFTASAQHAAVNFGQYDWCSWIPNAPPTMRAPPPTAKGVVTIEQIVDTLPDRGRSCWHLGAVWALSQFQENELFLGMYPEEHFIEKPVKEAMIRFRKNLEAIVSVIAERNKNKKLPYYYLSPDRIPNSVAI
Description: Inhibition of 5-lipoxygenase, in vitro:
anti-inflammatory, anti-allergy activities.
The 100,000×g supernatant fraction of Rat Basophilic Leukemia Cell Homogenate (RBL-1) serves as a 5-lipoxygenase enzyme source. The enzyme is incubated with [1-^14 C)-arachidonic acid and Ca++ in the presence and absence of test compound. The product of 5-lipoxygenase, 5-hydroxyeicosatetraenoic acid (5-HETE), is separated by thin-layer chromatography and measured by radioactivity. A compound inhibiting 5-HETE synthesis by 30% or more is considered active at that concentration.

[2] = Neutrophil, human neutrophils, FMLP

| Structure (SMILES) | IC50 [1, 2] | IC50 (5-lipoxygenase) | further results |
| --- | --- | --- | --- |
| C[C@@H](OCC(=O)O)[C@H](C)S(=O)(=O)c1cc(C(C)(C)C)c(O)c(C(C)(C)C)c1 (relative stereo) [Example 13, (±)[2S*-[[3,5-bis(1,1-dimethylethyl)-4-hydroxyphenyl]sulfonyl]-1R*- methylpropoxy]acetic acid] | ~30 µM | – | inhibition at 100 µM (5-lipoxygenase): 4% |
| C[C@@H](OCC(=O)O)[C@H](C)[S+]([O-])c1cc(C(C)(C)C)c(O)c(C(C)(C)C)c1 (relative stereo) [Example 12, (±)[2S*-[[3,5-bis(1,1-dimethylethyl)-4-hydroxyphenyl]sulfinyl]-1R*- methylpropoxy]acetic acid] | ~50 µM | – | inhibition at 100 µM (5-lipoxygenase): 12% |
| C[C@H](Sc1cc(C(C)(C)C)c(O)c(C(C)(C)C)c1)[C@@H](C)OCC(=O)O (relative stereo) [Example 9, 11, (±)[2S*-[[3,5-bis(1,1-dimethyl-ethyl)-4-hydroxyphenyl]thio]-1R*-methylpropoxy]acetic acid] | 11 µM | 4.9 µM | – |
| CN(CCc1ccccn1)C(=O)CCSc1cc(C(C)(C)C)c(O)c(C(C)(C)C)c1 [Formula IV, reference compound] | – | 0.32 µM | activation at 5 µM ([1]; Homo sapiens, Neutrophil, at 5 μm, read-out: increase in superoxide generated by neutrophils): 50%; activation at 10 µM ([1]; Homo sapiens, Neutrophil, at 10 μm, read-out: increase in superoxide generated by neutrophils): 227%; FMLP Induced Superoxide, result in words ([1]; human neutrophils, FMLP): Stimulates; also recorded: did not inhibit superoxide generation; 5-lipoxygenase inhibition, result in words (5-lipoxygenase): inhibited 5-lipoxygenase |
| C[C@H](Sc1cc(C(C)(C)C)c(O)c(C(C)(C)C)c1)[C@@H](C)OCC(=O)O (single isomer, unassigned) [Example 18, (+)[2S*-[[3,5-bis(1,1-dimethylethyl)-4-hydroxyphenyl]thio]-1R*-methylpropoxy]acetic acid] | 10 µM | 3.5 µM | – |
| CC(C)(C)c1cc(SCCSCC(=O)O)cc(C(C)(C)C)c1O [Example 4, 5, [[2-[[3,5-bis(1,1-dimethylethyl)-4-hydroxyphenyl]thio]ethyl]thio]aceticacid] | 5 µM | 3.3 µM | – |
| C[C@H](Sc1cc(C(C)(C)C)c(O)c(C(C)(C)C)c1)[C@@H](C)OCC(=O)O (single isomer, unassigned) [Example 17, (-)[2S*-[[3,5-bis(1,1-dimethylethyl)-4-hydroxyphenyl]thio]-1R*-methylpropoxy]acetic acid] | – | 4.3 µM | IC50 ([1]; human neutrophils, FMLP): 10 µM |
